Values after ≈ are worked out from the molar mass of the structure shown. Peptide text beside a SMILES is read from it.
What was measured:
P. aeruginosa PA01-wt = experiment: microbe, parasite or virus in culture; assay type: cell-based, Pseudomonas aeruginosa
Experimental: (§1) We selected six different P. aeruginosa isolates that were described as MDR and had been isolated from clinical and municipal waste water ([Schwartz et al., 2006]). The minimal inhibitory concentration (MIC) was determined in a microdilution assay using Mueller-Hinton (MH) broth following a previously published protocol ([Wiegand et al., 2008]). Briefly, a twofold serial dilution of the antibiotics and peptides were prepared and added to a bacteria solution, resulting in 2–5 10^5 CFU/ml. The microtiter plates (polypropylene, Corning) were incubated for 18 h at 37°C and MICs were taken visually.

MDR P. aeruginosa PA 910 = experiment: microbe, parasite or virus in culture; assay type: cell-based, Pseudomonas aeruginosa; details: MDR PA 910, 18 h
Experimental: as §1

MDR P. aeruginosa PA253 = experiment: microbe, parasite or virus in culture; assay type: cell-based, Pseudomonas aeruginosa
Experimental: as §1

MDR P. aeruginosa PA 919 = experiment: microbe, parasite or virus in culture; assay type: cell-based, Pseudomonas aeruginosa
Experimental: as §1

[1] = test system: MDR isolate of P. aeruginosa (PA 910); details: checkerboard, MHb
Experimental: The checkerboard assay was used to determine the fractional inhibitory concentrations (FICs), following the protocol described in Koneman’s Color Atlas and Textbook of Diagnostic Microbiology ([Winn et al., 2006]). Briefly, combinations of peptides and antibiotics were prepared in 96-well plates (polypropylene, Corning) in a twofold dilution series. After the addition of a log-phase bacterial inoculum of 2–5 × 10^5 CFU/ml, plates were incubated at 37°C for 18 h. The FICs were determined by visual inspection and the effects of the combinations were determined using the FICs. The FIC was computed by adding two partial FIC values, FICA—the MIC of drug A, tested in combination with drug B divided by the MIC of drug A, tested alone and FICB—the MIC of drug B, tested in combination with drug A divided by the MIC of drug B, tested alone [FIC = FICA + FICB = (MICAB/MICA) + (MICBA/MICB), where MICA and MICB are the MICs of drugs A and B alone, respectively, and MICAB and MICBA are the MIC concentrations of the drugs in combination]. Here we use the European Committee for Antimicrobial Susceptibility Testing (EUCAST) definition, which is very similar to the definition provided by [Odds, 2003], except Odds define additive effects when FIC values are between 0.5 and 1 ([European Committee for Antimicrobial Susceptibility Testing [EUCAST] of the European Society of Clinical Microbiology and Infectious Diseases [ESCMID], 2000]; [Odds, 2003]). The combination of peptide (drug A) and antibiotics (drug B) was defined as synergistic if the FIC was ≤ 0.5, indifferent if the FIC was > 0.5 but ≤ 4.0 and antagonistic if the FIC was > 4.0.

[2] = short AMPs, microdilution, Mueller-Hinton broth, 18 h at 37°C, read visually, triplicate (n = 3)

CC[C@H](C)[C@H](NC(=O)[C@H](CCCNC(=N)N)NC(=O)[C@H](C)NC(=O)[C@H](CC(C)C)NC(=O)[C@@H](N)CCCNC(=N)N)C(=O)N[C@H](C(=O)N[C@H](C(=O)N[C@H](C(=O)N[C@@H](CCCNC(=N)N)C(=O)N[C@H](C(=O)N[C@@H](C)C(=O)N[C@@H](CCCNC(=N)N)C(N)=O)C(C)C)[C@@H](C)CC)C(C)C)C(C)C [Bac2a] (H-RLARIVVIRVAR-NH2)
MIC against PA01 wt (P. aeruginosa PA01-wt; -wt, 18 h): 16 µM (≈ 22.7 µg/mL)
MIC against PA910 in μM (peptides, Table 4) (MDR P. aeruginosa PA 910): 32 µM (≈ 45.5 µg/mL)
MIC against MDR isolates of PA, PA253 (MDR P. aeruginosa PA253; MDR PA253, 18 h): 32 µM
MIC against MDR isolates of PA, PA919 (MDR P. aeruginosa PA 919; MDR PA 919, 18 h): 16 µM

N=C(N)NCCC[C@H](NC(=O)[C@H](CCCNC(=N)N)NC(=O)[C@@H](N)Cc1ccccc1)C(=O)N[C@@H](Cc1c[nH]c2ccccc12)C(=O)N[C@@H](Cc1c[nH]c2ccccc12)C(=O)N[C@@H](CCCCN)C(=O)N[C@@H](Cc1c[nH]c2ccccc12)C(=O)N[C@@H](Cc1ccccc1)C(=O)N[C@@H](CCCCN)C(N)=O [HHC-53] (H-FRRWWKWFK-NH2)
MIC against PA01 wt (P. aeruginosa PA01-wt; -wt, 18 h): 8 µM (≈ 11.5 µg/mL)
MIC against PA910 in μM (peptides, Table 4) (MDR P. aeruginosa PA 910): 32 µM (≈ 46 µg/mL)
MIC against MDR isolates of PA, PA253 (MDR P. aeruginosa PA253; MDR PA253, 18 h): 8 µM
MIC against MDR isolates of PA, PA919 (MDR P. aeruginosa PA 919; MDR PA 919, 18 h): 16 µM

CC[C@H](C)[C@H](N)C(=O)N[C@@H](CC(C)C)C(=O)N1CCC[C@H]1C(=O)N[C@@H](Cc1c[nH]c2ccccc12)C(=O)N[C@@H](CCCCN)C(=O)N[C@@H](Cc1c[nH]c2ccccc12)C(=O)N1CCC[C@H]1C(=O)N[C@@H](Cc1c[nH]c2ccccc12)C(=O)N[C@@H](Cc1c[nH]c2ccccc12)C(=O)N1CCC[C@H]1C(=O)N[C@@H](Cc1c[nH]c2ccccc12)C(=O)N[C@@H](CCCNC(=N)N)C(=O)N[C@@H](CCCNC(=N)N)C(N)=O [Indolic., indolicidin]
MIC against PA01 wt (P. aeruginosa PA01-wt; [2]): 8 µM (≈ 15.3 µg/mL)
MIC against MDR isolates of PA, PA253 (MDR P. aeruginosa PA253; [2]): 64 to 128 µM
MIC against MDR isolates of PA, PA919 (MDR P. aeruginosa PA 919; [2]): 32 µM
FIC mean (SD), combination with CET ([1]; confirmation study, peptide + ceftazidime, Indopt versions 1/8 MHb, mean of at least three measurements (n = 3), SD in brackets): 0.71 (0.21)
FIC, combination with AMI ([1]; peptide + amikacin, for the Indopt versions 1/8 MHb, 2–5 × 10^5 CFU/ml, 37°C, 18 h, visual, determined once (n = 1)): 0.75
FIC, combination with CEF ([1]; peptide + cefepime, for the Indopt versions 1/8 MHb, 2–5 × 10^5 CFU/ml, 37°C, 18 h, visual, determined once (n = 1)): 2
FIC, combination with CET ([1]; peptide + ceftazidime, for the Indopt versions 1/8 MHb, 2–5 × 10^5 CFU/ml, 37°C, 18 h, visual, determined once (n = 1)): 0.51
FIC, combination with CIP ([1]; peptide + ciprofloxacin, for the Indopt versions 1/8 MHb, 2–5 × 10^5 CFU/ml, 37°C, 18 h, visual, determined once (n = 1)): 0.5
FIC, combination with ERY ([1]; peptide + erythromycin, for the Indopt versions 1/8 MHb, 2–5 × 10^5 CFU/ml, 37°C, 18 h, visual, determined once (n = 1)): 0.63
FIC, combination with GEN ([1]; peptide + gentamycin, for the Indopt versions 1/8 MHb, 2–5 × 10^5 CFU/ml, 37°C, 18 h, visual, determined once (n = 1)): 0.5
FIC, combination with IMI ([1]; peptide + imipenem, for the Indopt versions 1/8 MHb, 2–5 × 10^5 CFU/ml, 37°C, 18 h, visual, determined once (n = 1)): 0.63
FIC, combination with KAN ([1]; peptide + kanamycin, for the Indopt versions 1/8 MHb, 2–5 × 10^5 CFU/ml, 37°C, 18 h, visual, determined once (n = 1)): 0.75
FIC, combination with MER ([1]; peptide + meropenem, for the Indopt versions 1/8 MHb, 2–5 × 10^5 CFU/ml, 37°C, 18 h, visual, determined once (n = 1)): 0.63
FIC, combination with PIP ([1]; peptide + piperacillin, for the Indopt versions 1/8 MHb, 2–5 × 10^5 CFU/ml, 37°C, 18 h, visual, determined once (n = 1)): 0.56
FIC, combination with PMB ([1]; peptide + polymyxin B, for the Indopt versions 1/8 MHb, 2–5 × 10^5 CFU/ml, 37°C, 18 h, visual, determined once (n = 1)): 0.25
FIC, combination with TET ([1]; peptide + tetracycline, for the Indopt versions 1/8 MHb, 2–5 × 10^5 CFU/ml, 37°C, 18 h, visual, determined once (n = 1)): 1
FIC, combination with TOB ([1]; peptide + tobramycin, for the Indopt versions 1/8 MHb, 2–5 × 10^5 CFU/ml, 37°C, 18 h, visual, determined once (n = 1)): 0.5

CC[C@H](C)[C@H](NC(=O)[C@@H](N)Cc1ccccc1)C(=O)N[C@@H](CCCCN)C(=O)N[C@@H](Cc1c[nH]c2ccccc12)C(=O)N[C@@H](CCCCN)C(=O)N[C@@H](CCCCN)C(=O)N[C@@H](CCCNC(=N)N)C(=O)N[C@@H](Cc1c[nH]c2ccccc12)C(=O)N[C@@H](Cc1c[nH]c2ccccc12)C(=O)N[C@@H](CCCCN)C(=O)N[C@@H](CCCCN)C(=O)N[C@@H](CCCNC(=N)N)C(=O)N[C@H](C(N)=O)[C@@H](C)O [Indopt 1] (H-FIKWKKRWWKKRT-NH2)
MIC against PA01 wt (P. aeruginosa PA01-wt; -wt, 18 h): 4 µM (≈ 7.56 µg/mL)
MIC against PA910 in μM (peptides, Table 4) (MDR P. aeruginosa PA 910): 8 µM (≈ 15.1 µg/mL)
MIC against MDR isolates of PA, PA253 (MDR P. aeruginosa PA253; MDR PA253, 18 h): 16 µM
MIC against MDR isolates of PA, PA919 (MDR P. aeruginosa PA 919; MDR PA 919, 18 h): 32 µM

CC[C@H](C)[C@H](NC(=O)[C@@H](N)Cc1ccccc1)C(=O)N[C@@H](CCCCN)C(=O)N[C@@H](Cc1c[nH]c2ccccc12)C(=O)N[C@@H](CCCNC(=N)N)C(=O)N[C@@H](Cc1ccccc1)C(=O)N[C@@H](CCCNC(=N)N)C(=O)N[C@@H](CCCNC(=N)N)C(=O)N[C@@H](Cc1c[nH]c2ccccc12)C(=O)N[C@@H](CCCCN)C(=O)N[C@@H](CCCCN)C(=O)N[C@@H](CCCNC(=N)N)C(=O)N[C@H](C(N)=O)[C@@H](C)O [Indopt 2] (H-FIKWRFRRWKKRT-NH2)
MIC against PA01 wt (P. aeruginosa PA01-wt; -wt, 18 h): 4 µM (≈ 7.63 µg/mL)
MIC against PA910 in μM (peptides, Table 4) (MDR P. aeruginosa PA 910): 8 µM (≈ 15.3 µg/mL)
MIC against MDR isolates of PA, PA253 (MDR P. aeruginosa PA253; MDR PA253, 18 h): 16 µM
MIC against MDR isolates of PA, PA919 (MDR P. aeruginosa PA 919; MDR PA 919, 18 h): 32 µM

— paper PMC6901909, “Synergy Pattern of Short Cationic Antimicrobial Peptides Against Multidrug-Resistant Pseudomonas aeruginosa” (Frontiers in Microbiology, 2019)
